In brackets after ≈: the same amount, converted by molar mass. Where a SMILES comes first, the peptide text is derived from it. [ ]: non-standard residue; d: D form.
How the values were obtained:
[1] = system: Rabbit RBC; format: cell-based
Outline: (§1)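 Washed rabbit or human erythrocytes (4% v/v in PBS pH 7.3) incubated with peptide dilutions 1 h at 37° C. Hemoglobin release read at 540 nm in supernatant, relative to PBS control and 0.1% Triton X-100 as 100% lysis; peptides tested at […].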

[2] = system: Human RBC; format: cell-based
Outline: as §1

[3] = system: E. coli DC2; test: Assay of antibacterial activity (MIC), E. coli DC2; format: cell-based, Escherichia coli; conditions: Table 5A
Outline: (§2)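 MIC by microdilution: MHB, 2−7×10^5 CFU/ml, peptide 10× stocks in 0.01% AcOH/0.2% BSA (doubling series), 37° C 18-24 h, recheck 40-48 h, visual + OD600 read.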

[4] = system: P. aeruginosa ATCC27853; format: cell-based, Pseudomonas aeruginosa
Text: (§3) The bacterial strains used were E. coli C498, E. coli C500, Escherichia coli UB1005 and its antibiotic supersusceptible derivative DC2 (22); a clinical isolate of Staphylococcus epidermidis (C621); coryneform bacterial strain Corynebacterium xerosis (C875); and E. coli ATCC 25922, Staphylococcus aureus ATCC 25923, Enterococcus faecalis ATCC 29212, Bacillus subtilis ATCC 6633 and Pseudomonas aeruginosa ATCC 27853, all from American Type Culture Collection.
(§4) Peptide antibacterial activity was assessed by the method of R. Hancock et al. (Wu & Hancock (1999), J. Biol. Chem., v. 274, pp. 29-35). Test strains of bacteria from Mueller Hinton agar (MHA) plates were inoculated into 5 ml Mueller Hinton Broth (MHB) in tubes and grown overnight at 37° C. on a shaker (180 rpm). Serial dilutions of test peptides (at 10 times the required test concentrations) were made in 0.01% acetic acid, 0.2% BSA, in polypropylene or coated glass tubes as follows: the test peptide was (a) dissolved in distilled water at 20 times the required maximum concentration (enough final volume for all tests to be performed on a given day); (b) diluted into an equal volume of 0.02% acetic acid, 0.4% BSA to give 10 times the required maximum concentration; (c) serial doubling dilutions were performed in 0.01% acetic acid, 0.2% BSA to provide serial dilutions of peptides at 10 times the required test concentrations, e.g., 640, 320, 160, . . . 2.5 μg/ml. (No deleterious effects of long-term storage of peptides in these media have been detected). Overnight bacterial cultures were diluted in MHB to give 2−7×10^5 colony forming units/ml. Bacterial suspension (100 μl) was dispensed in each well; controls without bacteria were maintained in parallel. To each well was added 11 μl of 10× test peptide and plates were incubated at 37° C. for 18-24 hours, and checked again at 40-48 hours. Plates were read visually and at 600 nm in a microplate reader (Molecular Devices).
(§5) A further number of the peptides of the invention were tested for antimicrobial activity against a range of Gram-positive and Gram-negative bacteria by the assay described immediately before Example 1.

[5] = system: E. coli UB1005; format: cell-based, Escherichia coli; conditions: UB1005
Outline: as §2

[6] = system: E. coli ATCC25922; format: cell-based
Text: as §3, §4, §5

[7] = system: Staphylococcus epidermidis (C621); format: cell-based; conditions: C621
Outline: (§6)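 Broth microdilution in Mueller Hinton Broth, inoculum 2−7×10^5 CFU/ml. Peptides serially doubled in 0.01% acetic acid, 0.2% BSA and added at 10× final concentration. Incubation 37° C for 18-24 h, rechecked at 40-48 h; growth read visually and at 600 nm.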

[8] = system: Corynebacterium xerosis (C875); format: cell-based
Outline: as §6

[9] = system: S. aureus ATCC25923; format: cell-based, Staphylococcus aureus
Text: as §3, §4, §5

[10] = system: B. subtilis ATCC6633; format: cell-based, Bacillus subtilis
Text: as §3, §4, §5

[11] = system: E. faecalis ATCC29212; format: cell-based, Enterococcus faecalis
Text: as §3, §4, §5

Compound | Rabbit RBC (% lysis) 50 μM [1] [% lysis] | Rabbit RBC (% lysis) 200 μM [1] [% lysis] | Human RBC (% lysis) 50 μM [2] [% lysis] | Human RBC (% lysis) 200 μM [2] [% lysis] | MIC E. coli DC2 [3] [µM] | MIC P. aeruginosa ATCC27853 [4] [µM] | MIC E. coli UB1005 [5] [µM] | MIC E. coli ATCC25922 [6] [µM] | MIC S. epidermidis C621 [7] [µM] | MIC C. xerosis C875 [8] [µM] | MIC S. aureus ATCC25923 [9] [µM] | MIC B. subtilis ATCC6633 [10] [µM] | MIC E. faecalis ATCC29212 [11] [µM]
C[C@H](NC(=O)[C@H](C)NC(=O)[C@H](C)NC(=O)[C@H](Cc1c[nH]c2ccccc12)NC(=O)[C@H](Cc1ccccc1)NC(=O)[C@H](C)NC(=O)[C@H](C)NC(=O)[C@H](C)NC(=O)[C@H](C)NC(=O)[C@H](CCCCN)NC(=O)[C@H](CCCCN)NC(=O)[C@H](CCCCN)NC(=O)[C@H](CCCCN)NC(=O)[C@H](CCCCN)NC(=O)[C@@H](N)CCCCN)C(=O)N[C@@H](C)C(=O)N[C@@H](Cc1ccccc1)C(N)=O [KAFW, KKKKKKAAAAFWAAAAF-NH2] (H-KKKKKKAAAAFWAAAAF-NH2; N-terminus assumed) | 0 | 1 | 0 | 0 | 0.5 (≈ 0.918 µg/mL) | 16 (≈ 29.4 µg/mL) | 2 (≈ 3.67 µg/mL) | 16 (≈ 29.4 µg/mL) | 8 (≈ 14.7 µg/mL) | 0.5 (≈ 0.918 µg/mL) |  |  | 
C[C@@H](NC(=O)[C@@H](C)NC(=O)[C@@H](Cc1ccccc1)NC(=O)[C@@H](C)NC(=O)[C@@H](C)NC(=O)[C@@H](Cc1c[nH]c2ccccc12)NC(=O)[C@@H](C)NC(=O)[C@@H](C)NC(=O)[C@@H](Cc1ccccc1)NC(=O)[C@@H](C)NC(=O)[C@@H](C)NC(=O)[C@@H](CCCCN)NC(=O)[C@@H](CCCCN)NC(=O)[C@@H](CCCCN)NC(=O)[C@@H](CCCCN)NC(=O)[C@@H](CCCCN)NC(=O)[C@H](N)CCCCN)C(N)=O [A11-D F17-6K, kkkkkkaafaawaafaa-NH2] (H-[dK][dK][dK][dK][dK][dK][dA][dA][dF][dA][dA][dW][dA][dA][dF][dA][dA]-NH2) | 0 | 2 | 0 | 0 |  | 8 (≈ 14.7 µg/mL) | 0.5 (≈ 0.918 µg/mL) | 2 (≈ 3.67 µg/mL) | 4 (≈ 7.34 µg/mL) |  | 32 (≈ 58.7 µg/mL) | 4 (≈ 7.34 µg/mL) | >32
C[C@H](NC(=O)[C@H](C)NC(=O)[C@H](Cc1c[nH]c2ccccc12)NC(=O)[C@H](C)NC(=O)[C@H](C)NC(=O)[C@H](Cc1c[nH]c2ccccc12)NC(=O)[C@H](C)NC(=O)[C@H](C)NC(=O)[C@H](Cc1c[nH]c2ccccc12)NC(=O)[C@H](C)NC(=O)[C@H](C)NC(=O)[C@H](CCCCN)NC(=O)[C@H](CCCCN)NC(=O)[C@H](CCCCN)NC(=O)[C@H](CCCCN)NC(=O)[C@H](CCCCN)NC(=O)[C@@H](N)CCCCN)C(N)=O [Peptide W17-6K, KKKKKKAAWAAWAAWAA-NH2] (H-KKKKKKAAWAAWAAWAA-NH2; N-terminus assumed) | 0 | 2 | 0 | 0 |  | 8 (≈ 15.3 µg/mL) | 1 (≈ 1.91 µg/mL) | 8 (≈ 15.3 µg/mL) | 8 (≈ 15.3 µg/mL) |  | 32 (≈ 61.2 µg/mL) | 4 (≈ 7.65 µg/mL) | >32
